Results as given in ChEMBL document CHEMBL4002566, “S-substituted 3,5-dinitrophenyl 1,3,4-oxadiazole-2-thiols and tetrazole-5-thiols as highly efficient antitubercular agents” (Eur J Med Chem, 2017).
Values after ≈ are worked out from the molar mass of the structure shown.

How the values were obtained:
Type in all cases: functional
[1] = tested on: Mycobacterium tuberculosis; assay: Antimycobacterial activity against multidrug-resistant Mycobacterium tuberculosis Praha 1 after 14 days by micromethod; conditions: Praha 1, 336 h
[2] = tested on: Mycobacterium tuberculosis; assay: Antimycobacterial activity against multidrug-resistant Mycobacterium tuberculosis Praha 4 after 14 days by micromethod; conditions: Praha 4, 336 h
[3] = tested on: Mycobacterium tuberculosis; assay: Antimycobacterial activity against multidrug-resistant Mycobacterium tuberculosis Praha 131 after 14 days by micromethod; conditions: Praha 131, 336 h
[4] = tested on: Mycobacterium tuberculosis; assay: Antimycobacterial activity against multidrug-resistant Mycobacterium tuberculosis 9449/2007 after 14 days by micromethod; conditions: 9449/2007, 336 h
[5] = tested on: Mycobacterium tuberculosis; assay: Antimycobacterial activity against multidrug-resistant Mycobacterium tuberculosis 234/2005 after 14 days by micromethod; conditions: 234/2005, 336 h
[6] = tested on: Mycobacterium tuberculosis; assay: Antimycobacterial activity against multidrug-resistant Mycobacterium tuberculosis 7357/1998 after 14 days by micromethod; conditions: 7357/1998, 336 h
[7] = tested on: Mycobacterium tuberculosis; assay: Antimycobacterial activity against multidrug-resistant Mycobacterium tuberculosis 8666/2010 after 14 days by micromethod; conditions: 8666/2010, 336 h
[8] = tested on: Mycobacterium tuberculosis; assay: Antimycobacterial activity against multidrug-resistant Mycobacterium tuberculosis Praha 1 after 21 days by micromethod; conditions: Praha 1, 504 h
[9] = tested on: Mycobacterium tuberculosis; assay: Antimycobacterial activity against multidrug-resistant Mycobacterium tuberculosis Praha 4 after 21 days by micromethod; conditions: Praha 4, 504 h
[10] = tested on: Mycobacterium tuberculosis; assay: Antimycobacterial activity against multidrug-resistant Mycobacterium tuberculosis Praha 131 after 21 days by micromethod; conditions: Praha 131, 504 h
[11] = tested on: Mycobacterium tuberculosis; assay: Antimycobacterial activity against multidrug-resistant Mycobacterium tuberculosis 9449/2007 after 21 days by micromethod; conditions: 9449/2007, 504 h
[12] = tested on: Mycobacterium tuberculosis; assay: Antimycobacterial activity against multidrug-resistant Mycobacterium tuberculosis 234/2005 after 21 days by micromethod; conditions: 234/2005, 504 h
[13] = tested on: Mycobacterium tuberculosis; assay: Antimycobacterial activity against multidrug-resistant Mycobacterium tuberculosis 7357/1998 after 21 days by micromethod; conditions: 7357/1998, 504 h
[14] = tested on: Mycobacterium tuberculosis; assay: Antimycobacterial activity against multidrug-resistant Mycobacterium tuberculosis 8666/2010 after 21 days by micromethod; conditions: 8666/2010, 504 h

SMILES	MIC [1]	MIC [2]	MIC [3]	MIC [4]	MIC [5]	MIC [6]	MIC [7]	MIC [8]	MIC [9]	MIC [10]	MIC [11]	MIC [12]	MIC [13]	MIC [14]
NNC(=O)c1ccncc1 [ISONIAZID]	16 µM (≈ 2.19 µg/mL)	16 µM (≈ 2.19 µg/mL)	16 µM (≈ 2.19 µg/mL)	64 µM (≈ 8.78 µg/mL)	16 µM (≈ 2.19 µg/mL)	16 µM (≈ 2.19 µg/mL)	32 µM (≈ 4.39 µg/mL)	–	–	–	–	–	–	–
CC(C)/N=c1\cc2n(-c3ccc(Cl)cc3)c3ccccc3nc-2cc1Nc1ccc(Cl)cc1 [CLOFAZIMINE]	0.5 µM (≈ 0.237 µg/mL)	0.5 µM (≈ 0.237 µg/mL)	0.25 µM (≈ 0.118 µg/mL)	0.125 µM (≈ 0.0592 µg/mL)	0.125 µM (≈ 0.0592 µg/mL)	0.125 µM (≈ 0.0592 µg/mL)	2 µM (≈ 0.947 µg/mL)	–	–	–	–	–	–	–
CO[C@H]1/C=C/O[C@@]2(C)Oc3c(C)c(O)c4c(O)c(c(/C=N/N5CCN(C)CC5)c(O)c4c3C2=O)NC(=O)/C(C)=C\C=C\[C@H](C)[C@H](O)[C@@H](C)[C@@H](O)[C@@H](C)[C@H](OC(C)=O)[C@@H]1C [RIFAMPIN]	> 8 µM	> 8 µM	> 8 µM	> 8 µM	> 8 µM	> 8 µM	> 8 µM	–	–	–	–	–	–	–
CN[C@@H]1[C@H](O[C@H]2[C@H](O[C@H]3[C@H](O)[C@@H](O)[C@H](N=C(N)N)[C@@H](O)[C@@H]3N=C(N)N)O[C@@H](C)[C@]2(O)C=O)O[C@@H](CO)[C@H](O)[C@H]1O [STREPTOMYCIN]	16 µM (≈ 9.31 µg/mL)	> 32 µM	> 32 µM	> 32 µM	32 µM (≈ 18.6 µg/mL)	> 32 µM	> 32 µM	–	–	–	–	–	–	–
O=[N+]([O-])c1cc(-n2nnnc2SCc2ccc(Cl)cc2)cc([N+](=O)[O-])c1	0.5 µM (≈ 0.196 µg/mL)	0.5 µM (≈ 0.196 µg/mL)	0.5 µM (≈ 0.196 µg/mL)	0.5 µM (≈ 0.196 µg/mL)	0.5 µM (≈ 0.196 µg/mL)	0.5 µM (≈ 0.196 µg/mL)	0.5 µM (≈ 0.196 µg/mL)	0.5 µM (≈ 0.196 µg/mL)	0.5 µM (≈ 0.196 µg/mL)	0.5 µM (≈ 0.196 µg/mL)	0.5 µM (≈ 0.196 µg/mL)	0.5 µM (≈ 0.196 µg/mL)	0.5 µM (≈ 0.196 µg/mL)	0.5 µM (≈ 0.196 µg/mL)
O=[N+]([O-])c1cc(-c2nnc(SCc3ccccc3Cl)o2)cc([N+](=O)[O-])c1	0.06 µM (≈ 0.0236 µg/mL)	0.03 µM (≈ 0.0118 µg/mL)	0.06 µM (≈ 0.0236 µg/mL)	0.06 µM (≈ 0.0236 µg/mL)	0.06 µM (≈ 0.0236 µg/mL)	0.06 µM (≈ 0.0236 µg/mL)	0.06 µM (≈ 0.0236 µg/mL)	0.125 µM (≈ 0.0491 µg/mL)	0.06 µM (≈ 0.0236 µg/mL)	0.125 µM (≈ 0.0491 µg/mL)	0.125 µM (≈ 0.0491 µg/mL)	0.125 µM (≈ 0.0491 µg/mL)	0.125 µM (≈ 0.0491 µg/mL)	0.125 µM (≈ 0.0491 µg/mL)
O=[N+]([O-])c1cc(-c2nnc(SCc3ccc(Cl)cc3)o2)cc([N+](=O)[O-])c1	0.03 µM (≈ 0.0118 µg/mL)	0.03 µM (≈ 0.0118 µg/mL)	0.03 µM (≈ 0.0118 µg/mL)	0.03 µM (≈ 0.0118 µg/mL)	0.03 µM (≈ 0.0118 µg/mL)	0.03 µM (≈ 0.0118 µg/mL)	0.03 µM (≈ 0.0118 µg/mL)	0.06 µM (≈ 0.0236 µg/mL)	0.06 µM (≈ 0.0236 µg/mL)	0.06 µM (≈ 0.0236 µg/mL)	0.06 µM (≈ 0.0236 µg/mL)	0.06 µM (≈ 0.0236 µg/mL)	0.06 µM (≈ 0.0236 µg/mL)	0.06 µM (≈ 0.0236 µg/mL)
O=[N+]([O-])c1cc(-c2nnc(SCc3ccc(Cl)c(Cl)c3)o2)cc(C(F)(F)F)c1	0.5 µM (≈ 0.225 µg/mL)	0.25 µM (≈ 0.113 µg/mL)	0.5 µM (≈ 0.225 µg/mL)	0.5 µM (≈ 0.225 µg/mL)	0.5 µM (≈ 0.225 µg/mL)	0.5 µM (≈ 0.225 µg/mL)	0.5 µM (≈ 0.225 µg/mL)	0.5 µM (≈ 0.225 µg/mL)	0.5 µM (≈ 0.225 µg/mL)	0.5 µM (≈ 0.225 µg/mL)	0.5 µM (≈ 0.225 µg/mL)	0.5 µM (≈ 0.225 µg/mL)	0.5 µM (≈ 0.225 µg/mL)	0.5 µM (≈ 0.225 µg/mL)
O=[N+]([O-])c1cc(-c2nnc(SCc3ccccc3)o2)cc(C(F)(F)F)c1	1 µM (≈ 0.381 µg/mL)	1 µM (≈ 0.381 µg/mL)	1 µM (≈ 0.381 µg/mL)	2 µM (≈ 0.763 µg/mL)	1 µM (≈ 0.381 µg/mL)	1 µM (≈ 0.381 µg/mL)	1 µM (≈ 0.381 µg/mL)	1 µM (≈ 0.381 µg/mL)	1 µM (≈ 0.381 µg/mL)	2 µM (≈ 0.763 µg/mL)	2 µM (≈ 0.763 µg/mL)	1 µM (≈ 0.381 µg/mL)	2 µM (≈ 0.763 µg/mL)	2 µM (≈ 0.763 µg/mL)
